Source: US5688773A, “Method of selectively destroying neoplastic cells” (priority 1994, dated 1997)

Assays:
C6VIK-WT cells = test: GCV killing in culture; type: cell-based; conditions: Rattus norvegicus, read-out: GCV concentration at which 50% of cells were killed
Source text: (§1) Retroviral vectors can be used to transfer genes into the genome of dividing cells. In order to increase the efficiency of gene delivery and killing effect of ganciclovir, a new packaging line (C6VIK-WT) was developed by infecting C6VIK cells with an ecotropic wild-type retrovirus (MoMLV). See Mann et al., Cell 33:153-159 (1983); Price et al., Proc. Natl. Acad. Sci. USA 84:156-160 (1987); and Cepko, C., in Neuromethods, vol. 16, Molecular Neurobiological Techniques, Boulton et al., eds., The Humana Press, Clifton, N.J. (1989), pp. 177-219. Because tumor cells can migrate deep into brain parenchyme, they should be able to deliver the vector to tumor cells away from the tumor mass. In culture, 50% of C6VIK-WT cells were killed at 0.024 μM GCV, while it took 7.3 μM GCV to kill 50% of C6VIK cells. […] When C6VIK and C6VIK-WT were cultured with C6BAG cells (labelled with the lacZ gene and thus detectable by beta-galactosidase histochemistry), following GCV treatment substantially more C6BAG cells were killed when co-cultured with C6VIK-WT than with C6VIK cells. Presumably C6VIK-WT cells produce both wild-type retrovirus and retrovirus vectors containing the HSV-TK gene (neither of which are produced by C6VIK cells) and death of C6BAG cells might be mediated by retrovirus infection and/or self-generated GCV toxic products.

C6VIK cells = test: GCV killing in culture; type: cell-based; conditions: Rattus norvegicus, read-out: GCV concentration at which 50% of cells were killed
Source text: as §1

[1] = test system: C6 glioma cells and other cells infected with this retrovirus; conditions: cell culture; cited from earlier work
C6 cells = test: Cyclophosphamide dose-response assay; type: cell-based; conditions: Rattus norvegicus, up to 1 mM CPA, read-out: cells that survived incubation
Procedure: Two days later CPA was added to final concentrations of 0-100 μM. Five days after plating, the monolayers were rinsed twice with Hank's buffered saline (GIBCO) to remove dead cells. Monolayers were dispersed using trypsin-EDTA (GIBCO), and cell numbers were determined using a Coulter counter (Coulter Electronics Inc.).

Row | Compound | IC50 (C6VIK-WT cells) | IC50 (C6VIK cells) | fold lower ganciclovir concentration killing infected vs uninfected cells [1] | viability at 1000 µM (C6 cells)
1 | Nc1nc(O)c2ncn(COC(CO)CO)c2n1 [ganciclovir] | 0.024 µM | 7.3 µM | 100 fold | –
2 | O=P1(N(CCCl)CCCl)NCCCO1 (stereo not shown) [cyclophosphamide] | – | – | – | ≥ 80%
